Data: ChEMBL document CHEMBL6182857, “Targeting biofilm formation in Candida albicans with halogenated pyrrolopyrimidine derivatives” (Eur J Med Chem, 2025)
Calls of active or inactive are those of the source. No cut-off for these calls is given here.

Key:
Candida albicans [1] = assay: Antibiofilm activity against fluconazole-resistant Candida albicans DAY185 assessed as inhibition of biofilm formation at 0.5 ug/ml measured after 24 hrs by crystal violet staining based analysis relative to control; format: functional, organism-based; conditions: dose 0.5 µg/ml
Candida albicans [2] = assay: Antibiofilm activity against fluconazole-resistant Candida albicans DAY185 assessed as inhibition of biofilm formation at 1 ug/ml measured after 24 hrs by crystal violet staining based analysis relative to control; format: functional
Candida albicans [3] = assay: Antibiofilm activity against fluconazole-resistant Candida albicans DAY185 assessed as inhibition of biofilm formation at 50 ug/ml measured after 24 hrs by crystal violet staining based analysis relative to control; format: functional
Candida albicans [4] = assay: Antibiofilm activity against fluconazole-resistant Candida albicans DAY185 assessed as inhibition of biofilm formation at 5 ug/ml measured after 24 hrs by crystal violet staining based analysis; format: functional, organism-based; conditions: dose 5.0 µg/ml
Candida albicans [5] = assay: Antibiofilm activity against fluconazole-resistant Candida albicans DAY185 assessed as inhibition of biofilm formation at 7 ug/ml measured after 24 hrs by crystal violet staining based analysis relative to control; format: functional
Candida albicans [6] = assay: Antibiofilm activity against fluconazole-resistant Candida albicans DAY185 assessed as inhibition of biofilm formation at 10 to 20 ug/ml measured after 24 hrs by 2D/3D imaging analysis relative to control; format: functional; conditions: dose 10-20 µg/ml, at 10 to 20 µg/mL
Candida albicans [7] = assay: Antibiofilm activity against fluconazole-resistant Candida albicans DAY185 assessed as inhibition of biofilm formation at 5 ug/ml measured after 24 hrs by 2D/3D imaging analysis; format: functional, organism-based; conditions: dose 5.0 µg/ml
Candida albicans [8] = assay: Inhibition of yeast to hypha transition in fluconazole-resistant Candida albicans DAY185 assessed as decrease in cell aggregation at 5 to 20 ug/ml measured after 24 hrs by SEM analysis; format: functional, organism-based; conditions: dose 5-20 µg/ml
Candida albicans [9] = assay: Inhibition of yeast to hypha transition in fluconazole-resistant Candida albicans DAY185 assessed as decrease in germ tube formation at 5 to 20 ug/ml measured after 24 hrs by SEM analysis; format: functional, organism-based; conditions: dose 5-20 µg/ml
Candida albicans [10] = assay: Inhibition of yeast to hypha transition in fluconazole-resistant Candida albicans DAY185 assessed as decrease in filamentous growth at 5 to 20 ug/ml measured after 24 hrs by SEM analysis; format: functional, organism-based; conditions: dose 5-20 µg/ml
Candida albicans [11] = assay: Inhibition of yeast to hypha transition in fluconazole-resistant Candida albicans DAY185 assessed as decrease in hyphal development at >=10 ug/ml measured after 24 hrs by SEM analysis relative to control; format: functional; conditions: dose >= 10 µg/ml
Candida albicans [12] = assay: Inhibition of yeast to hypha transition in fluconazole-resistant Candida albicans DAY185 assessed as decrease in hyphal growth at 5 to 20 ug/ml measured after 24 hrs by SEM analysis; format: functional, organism-based; conditions: dose 5-20 µg/ml
Candida albicans [13] = assay: Inhibition of yeast to hypha transition in fluconazole-resistant Candida albicans DAY185 assessed as decrease in hyphal adhesion at 5 to 20 ug/ml measured after 24 hrs by SEM analysis; format: functional, organism-based; conditions: dose 5-20 µg/ml
Candida albicans [14] = assay: Downregulation of ALS3 mRNA level in fluconazole-resistant Candida albicans DAY185 assessed as fold decrease at 50 ug/ml incubated for 6 hrs by qRT-PCR analysis relative to control; format: functional; conditions: dose 50.0 µg/ml
Candida albicans [15] = assay: Downregulation of HWP1 mRNA level in fluconazole-resistant Candida albicans DAY185 assessed as fold decrease at 50 ug/ml incubated for 6 hrs by qRT-PCR analysis relative to control; format: functional; conditions: dose 50.0 µg/ml
Candida albicans [16] = assay: Upregulation of YWP1 mRNA level in fluconazole-resistant Candida albicans DAY185 assessed as fold increase at 50 ug/ml incubated for 6 hrs by qRT-PCR analysis relative to control; format: functional; conditions: dose 50.0 µg/ml
Candida albicans [17] = assay: Downregulation of ECE1 mRNA level in fluconazole-resistant Candida albicans DAY185 assessed as fold decrease at 50 ug/ml incubated for 6 hrs by qRT-PCR analysis relative to control; format: functional; conditions: dose 50.0 µg/ml
Candida albicans [18] = assay: Upregulation of CDR11 mRNA level in fluconazole-resistant Candida albicans DAY185 assessed as fold increase at 50 ug/ml incubated for 6 hrs by qRT-PCR analysis relative to control; format: functional; conditions: dose 50.0 µg/ml
Candida albicans [19] = assay: Upregulation of GST3 mRNA level in fluconazole-resistant Candida albicans DAY185 assessed as fold increase at 50 ug/ml incubated for 6 hrs by qRT-PCR analysis relative to control; format: functional; conditions: dose 50.0 µg/ml
Candida albicans [20] = assay: Upregulation of IFD6 mRNA level in fluconazole-resistant Candida albicans DAY185 assessed as fold increase at 50 ug/ml incubated for 6 hrs by qRT-PCR analysis relative to control; format: functional; conditions: dose 50.0 µg/ml
Candida albicans [21] = assay: Upregulation of UCF1 mRNA level in fluconazole-resistant Candida albicans DAY185 assessed as fold increase at 50 ug/ml incubated for 6 hrs by qRT-PCR analysis relative to control; format: functional; conditions: dose 50.0 µg/ml
Candida albicans [22] = assay: Upregulation of ZAP1 mRNA level in fluconazole-resistant Candida albicans DAY185 assessed as fold increase at 50 ug/ml incubated for 6 hrs by qRT-PCR analysis relative to control; format: functional; conditions: dose 50.0 µg/ml
Candida albicans [23] = assay: Effect on UME6 mRNA level in fluconazole-resistant Candida albicans DAY185 at 50 ug/ml incubated for 6 hrs by qRT-PCR analysis; format: functional; conditions: dose 50.0 µg/ml
Brassica rapa = assay: Toxicity in Brassica rapa assessed as seed germination rate at 10 to 100 ug/ml treated for 4 days relative to control; format: organism-based; conditions: in vivo, 96 h, at 10 to 100 µg/mL, dose 10-100 µg/ml, time 4 day
[24] = Toxicity in Caenorhabditis elegans assessed as nematode survival at higher concentrations treated for 10 days; conditions: 240 h, time 10 day
Candida albicans [25] = assay: Antibiofilm activity against fluconazole-resistant Candida albicans DAY185 assessed as inhibition of biofilm formation on bio-compatible PLGA surface coated with compound at 5 to 10 ug/ml incubated for 24 hrs by CLSM analysis; format: functional, organism-based; conditions: dose 5-10 µg/ml
Candida albicans [26] = assay: Antibiofilm activity against fluconazole-resistant Candida albicans DAY185 assessed as reduction in biofilm thickness on bio-compatible PLGA surface coated with compound at 5 to 10 ug/ml incubated for 24 hrs by CLSM analysis; format: functional, organism-based; conditions: dose 5-10 µg/ml
Candida albicans [27] = assay: Antibiofilm activity against fluconazole-resistant Candida albicans DAY185 assessed as reduction in overall biofilm mass on bio-compatible PLGA surface coated with compound at 5 to 10 ug/ml incubated for 24 hrs by CLSM analysis; format: functional, organism-based; conditions: dose 5-10 µg/ml
Candida albicans [28] = assay: Antibiofilm activity against fluconazole-resistant Candida albicans DAY185 assessed as reduction in biofilm mass on bio-compatible PLGA surface coated with compound incubated for 24 hrs by COMSTAT analysis; format: functional, organism-based
Candida albicans [29] = assay: Antibiofilm activity against fluconazole-resistant Candida albicans DAY185 assessed as reduction in mean biofilm thickness on bio-compatible PLGA surface coated with compound incubated for 24 hrs by COMSTAT analysis; format: functional, organism-based
Candida albicans [30] = assay: Antibiofilm activity against fluconazole-resistant Candida albicans DAY185 assessed as reduction in substratum coverage on bio-compatible PLGA surface coated with compound at 5 ug/ml incubated for 24 hrs by COMSTAT analysis; format: functional, organism-based; conditions: dose 5.0 µg/ml
Candida albicans [31] = assay: Additive antibiofilm activity against fluconazole-resistant Candida albicans DAY185 assessed as inhibition of biofilm formation at 5 ug/ml measured after 24 hrs in presence of AMB by crystal violet staining based analysis relative to control; format: functional, organism-based; conditions: dose 5.0 µg/ml
Candida albicans [32] = assay: Antibiofilm activity against Candida albicans ATCC 10231 assessed as inhibition of biofilm formation by crystal violet staining based analysis; format: functional, organism-based
Candida albicans [33] = assay: Additive antibiofilm activity against fluconazole-resistant Candida albicans DAY185 assessed as inhibition of biofilm formation at 5 ug/ml measured after 24 hrs in presence of BTZ by crystal violet staining based analysis relative to control; format: functional, organism-based; conditions: dose 5.0 µg/ml
Candida albicans [34] = assay: Antibiofilm activity against Candida albicans KCCM 12552 assessed as inhibition of biofilm formation by crystal violet staining based analysis; format: functional, organism-based
[Candida] auris [35] = Antibiofilm activity against Candida auris KCTC 17809 assessed as inhibition of biofilm formation by crystal violet staining based analysis; format: functional, organism-based; conditions: Candidozyma auris
[Candida] auris [36] = Antibiofilm activity against Candida auris KCTC 17810 assessed as inhibition of biofilm formation by crystal violet staining based analysis; format: functional, organism-based; conditions: Candidozyma auris

C[C@@H]1[C@H](O)[C@@H](C)/C=C/C=C/C=C/C=C/C=C/C=C/C=C/[C@H](O[C@@H]2O[C@H](C)[C@@H](O)[C@H](N)[C@@H]2O)C[C@@H]2O[C@](O)(C[C@@H](O)C[C@@H](O)[C@H](O)CC[C@@H](O)C[C@@H](O)CC(=O)O[C@H]1C)C[C@H](O)[C@H]2C(=O)O [AMPHOTERICIN B]
inhibition (Candida albicans [1]): Active
inhibition at 1 µg/mL (Candida albicans [2]): 96%

Clc1ncnc2[nH]cc(Br)c12
inhibition at 50 µg/mL (Candida albicans [3]): > 85%

OC(Cn1cncn1)(Cn1cncn1)c1ccc(F)cc1F [FLUCONAZOLE]
inhibition at 1 µg/mL (Candida albicans [2]): < 12%

Clc1nc(Cl)c2c(I)c[nH]c2n1
inhibition at 50 µg/mL (Candida albicans [3]): > 85%
inhibition (Candida albicans [4]): Active
inhibition at 7 µg/mL (Candida albicans [5]): 100%
inhibition (INH) (Candida albicans [6]): ~100%
inhibition (Candida albicans [7]): Active
inhibition (Candida albicans [8]): Active
inhibition (Candida albicans [9]): Active
inhibition (Candida albicans [10]): Active
inhibition (INH) (Candida albicans [11]): 100%
inhibition (Candida albicans [12]): Active
inhibition (Candida albicans [13]): Active
fold change (FC) (Candida albicans [14]): 8
fold change (FC) (Candida albicans [15]): 57
fold change (FC) (Candida albicans [16]): 55
fold change (FC) (Candida albicans [17]): 143
fold change (FC) (Candida albicans [18]): 138
fold change (FC) (Candida albicans [19]): 58
fold change (FC) (Candida albicans [20]): 82
fold change (FC) (Candida albicans [21]): 37
fold change (FC) (Candida albicans [22]): 10
Activity (Candida albicans [23]): No effect
Activity (Brassica rapa): > 90%
Activity [24]: Toxic
inhibition (Candida albicans [25]): Active; Significant Effect Even At Lower Concentration
Activity (Candida albicans [26]): Active; More Pronounced Effects Were Observed At Higher Concentration
Activity (Candida albicans [27]): Active; More Pronounced Effects Were Observed At Higher Concentration
Activity (Candida albicans [28]): Dose-dependent-effect; Nearly Undetectable Levels Were Observed At 5 Ug/Ml
Activity (Candida albicans [29]): Dose-dependent-effect; Nearly Undetectable Levels Were Observed At 5 Ug/Ml
Activity (Candida albicans [30]): Active
inhibition (Candida albicans [31]): Active
inhibition (Candida albicans [32]): Dose-dependent-effect
inhibition (Candida albicans [33]): Active
inhibition (Candida albicans [34]): Dose-dependent-effect
inhibition ([Candida] auris [35]): Dose-dependent-effect
inhibition ([Candida] auris [36]): Dose-dependent-effect
